Molecular target: MC4-R (Homo sapiens, UniProt P32245)
Assay: cAMP Scintillation Proximity Assay in cells expressing MC4-R
Format: cell-based
Conditions: intercellular cAMP measured with SPA kit, read-out: in vitro potency (as measured by EC50 value)
Description: EC50 values of test compounds were determined by treating cells expressing MC4-R with test compound and lysing the cells and measuring intercellular cAMP concentration with an Amersham-Pharmacia RPA-559 cAMP Scintillation Proximity Assay (SPA) kit. The following compounds were synthesized and tested according to this assay. The following compounds are merely illustrative and should not be construed as limiting of the instant invention.

MC4-R, sequence (P32245 whole entry, species assumed): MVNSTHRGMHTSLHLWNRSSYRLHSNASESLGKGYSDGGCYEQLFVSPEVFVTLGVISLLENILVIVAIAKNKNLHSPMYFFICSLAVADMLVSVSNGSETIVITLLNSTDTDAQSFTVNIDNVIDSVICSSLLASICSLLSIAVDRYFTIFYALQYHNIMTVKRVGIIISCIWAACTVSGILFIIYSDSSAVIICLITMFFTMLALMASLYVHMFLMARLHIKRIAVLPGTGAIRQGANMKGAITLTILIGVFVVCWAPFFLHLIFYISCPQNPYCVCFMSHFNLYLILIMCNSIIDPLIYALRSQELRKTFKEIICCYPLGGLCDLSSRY

C[C@@H]1[C@@H](N=C(Nc2ccc3c(c2)CCN(CCc2ccc(Cl)cc2Cl)C3=O)N2CCN[C@@H](C)C2)C[C@H]2C[C@@H]1C2(C)C [Example 22, (3S)—N-{2-[2-(2,4-dichlorophenyl)ethyl]-1-oxo-1,2,3,4-tetrahydroisoquinolin-6-yl}-3-methyl-N′-[(1S,2S,5R)-2,6,6-trimethylbicyclo[3.1.1]hept-3-yl]piperazine-1-carboximidamide]
EC50: < 3 µM

From patent publication US7456183B2, “Guanidino compounds” (Novartis Vaccines and Diagnostics, Inc., priority 2001, dated 2008)
